In ChEMBL document CHEMBL1782045, “Discovery, synthesis, and investigation of the antitumor activity of novel piperazinylpyrimidine derivatives” (Eur J Med Chem, 2011):

Key:
[1] = test system: T1, Receptor-type tyrosine-protein kinase FLT3 (Homo sapiens), P36888 [D835H]; experiment: Binding affinity to human FLT3 D835H mutant at 10 uM incubated for 1 hr by kinase binding assay relative to untreated control
T1 sequence (whole entry): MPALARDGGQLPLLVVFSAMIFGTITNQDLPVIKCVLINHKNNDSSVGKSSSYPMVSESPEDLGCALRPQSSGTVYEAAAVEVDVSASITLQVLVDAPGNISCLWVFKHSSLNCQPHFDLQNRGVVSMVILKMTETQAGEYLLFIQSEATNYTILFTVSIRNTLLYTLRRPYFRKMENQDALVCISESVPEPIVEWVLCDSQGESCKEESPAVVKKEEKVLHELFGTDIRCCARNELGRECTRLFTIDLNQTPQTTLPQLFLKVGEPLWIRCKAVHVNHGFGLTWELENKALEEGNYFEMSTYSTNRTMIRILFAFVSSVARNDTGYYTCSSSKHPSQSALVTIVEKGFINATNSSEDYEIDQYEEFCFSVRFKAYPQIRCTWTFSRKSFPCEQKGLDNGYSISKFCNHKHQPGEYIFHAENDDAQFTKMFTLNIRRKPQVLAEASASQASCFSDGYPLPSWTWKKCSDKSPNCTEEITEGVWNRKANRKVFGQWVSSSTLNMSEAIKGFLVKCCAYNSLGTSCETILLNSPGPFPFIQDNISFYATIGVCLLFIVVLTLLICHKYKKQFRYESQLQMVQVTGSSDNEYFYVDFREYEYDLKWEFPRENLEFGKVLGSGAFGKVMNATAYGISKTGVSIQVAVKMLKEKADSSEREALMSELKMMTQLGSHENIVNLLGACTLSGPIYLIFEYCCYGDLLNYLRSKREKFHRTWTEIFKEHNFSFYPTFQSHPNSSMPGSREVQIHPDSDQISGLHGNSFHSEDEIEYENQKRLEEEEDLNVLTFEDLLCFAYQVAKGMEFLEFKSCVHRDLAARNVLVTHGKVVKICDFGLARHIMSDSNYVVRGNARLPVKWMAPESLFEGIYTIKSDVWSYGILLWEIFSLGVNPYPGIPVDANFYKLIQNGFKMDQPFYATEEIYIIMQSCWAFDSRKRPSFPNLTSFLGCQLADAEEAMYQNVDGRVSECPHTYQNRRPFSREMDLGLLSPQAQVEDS

[2] = target: Tyrosine-protein kinase ABL1 (Homo sapiens) (UniProt P00519); experiment: Inhibition of human ABL using gamma-33P-ATP as substrate assessed as enzyme functional activity at 1 uM by scintillation counting relative to untreated control; set-up: scale not given: the % may be the effect or the level left
Tyrosine-protein kinase ABL1 (Homo sapiens), sequence (P00519 whole entry): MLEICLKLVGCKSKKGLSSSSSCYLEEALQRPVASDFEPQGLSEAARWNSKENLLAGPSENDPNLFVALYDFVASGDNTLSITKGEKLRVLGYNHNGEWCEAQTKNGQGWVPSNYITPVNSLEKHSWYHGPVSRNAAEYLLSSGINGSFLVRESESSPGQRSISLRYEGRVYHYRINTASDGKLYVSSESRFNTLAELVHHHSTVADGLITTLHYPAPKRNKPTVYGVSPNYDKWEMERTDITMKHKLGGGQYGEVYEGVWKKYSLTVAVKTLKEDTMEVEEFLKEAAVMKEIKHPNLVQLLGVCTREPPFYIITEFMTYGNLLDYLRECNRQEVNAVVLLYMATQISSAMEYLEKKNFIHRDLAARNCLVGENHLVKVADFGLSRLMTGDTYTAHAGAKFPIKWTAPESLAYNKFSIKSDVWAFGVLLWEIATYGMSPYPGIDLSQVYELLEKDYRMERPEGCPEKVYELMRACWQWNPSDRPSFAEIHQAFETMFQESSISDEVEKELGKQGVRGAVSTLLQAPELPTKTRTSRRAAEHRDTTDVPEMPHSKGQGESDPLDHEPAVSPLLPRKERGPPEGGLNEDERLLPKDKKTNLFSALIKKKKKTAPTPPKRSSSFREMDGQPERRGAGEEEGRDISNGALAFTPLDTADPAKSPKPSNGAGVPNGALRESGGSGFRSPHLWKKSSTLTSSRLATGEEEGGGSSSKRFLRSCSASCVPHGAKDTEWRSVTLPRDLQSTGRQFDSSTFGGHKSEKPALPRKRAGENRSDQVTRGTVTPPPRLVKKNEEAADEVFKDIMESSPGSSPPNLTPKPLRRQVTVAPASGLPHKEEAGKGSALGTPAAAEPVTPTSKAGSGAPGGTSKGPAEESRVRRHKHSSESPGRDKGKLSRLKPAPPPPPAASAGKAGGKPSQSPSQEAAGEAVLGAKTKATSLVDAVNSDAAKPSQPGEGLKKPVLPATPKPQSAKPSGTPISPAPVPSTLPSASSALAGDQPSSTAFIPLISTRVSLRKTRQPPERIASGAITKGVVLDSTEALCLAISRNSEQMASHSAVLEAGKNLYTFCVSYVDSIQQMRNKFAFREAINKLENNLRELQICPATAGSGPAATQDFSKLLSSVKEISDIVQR

[3] = test system: NCI-H460; experiment: Growth inhibition of human NCI-H460 cells after 48 hrs by sulforhodamine B assay; format: functional; settings: NCI-H460, 48 h
[4] = test system: SF-268; experiment: Cytotoxicity against human SF268 cells after 48 hrs by sulforhodamine B assay; format: cell-based; settings: sf-268, 48 h
[5] = test system: SK-MEL-2; experiment: Cytotoxicity against human SK-MEL-2 cells after 48 hrs by sulforhodamine B assay; format: cell-based; settings: sk-mel-2, 48 h
[6] = test system: DU-145; experiment: Growth inhibition of human DU145 cells after 48 hrs by sulforhodamine B assay; format: functional; settings: DU-145, 48 h
[7] = target: Mitogen-activated protein kinase 1 (Homo sapiens) (UniProt P28482); experiment: Inhibition of human MAPK1 using gamma-33P-ATP as substrate assessed as enzyme functional activity at 1 uM by scintillation counting relative to untreated control; set-up: scale not given: the % may be the effect or the level left
Mitogen-activated protein kinase 1 (Homo sapiens), sequence (P28482 whole entry): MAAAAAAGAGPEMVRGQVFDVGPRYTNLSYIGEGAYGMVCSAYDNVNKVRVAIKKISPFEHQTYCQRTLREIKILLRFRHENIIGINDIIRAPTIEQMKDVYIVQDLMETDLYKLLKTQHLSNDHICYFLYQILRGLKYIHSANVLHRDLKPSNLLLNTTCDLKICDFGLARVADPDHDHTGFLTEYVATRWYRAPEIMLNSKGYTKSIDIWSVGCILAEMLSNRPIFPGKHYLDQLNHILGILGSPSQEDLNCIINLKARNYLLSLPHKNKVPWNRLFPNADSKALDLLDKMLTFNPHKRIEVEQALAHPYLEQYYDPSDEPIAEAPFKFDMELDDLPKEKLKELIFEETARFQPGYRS

[8] = test system: OVCAR-5; experiment: Growth inhibition of human OVCAR5 cells after 48 hrs by sulforhodamine B assay; format: functional; settings: OVCAR-5, 48 h
[9] = test system: A498; experiment: Cytotoxicity against human A498 cells after 48 hrs by sulforhodamine B assay; format: cell-based; settings: a498, 48 h
[10] = test system: 786-0; experiment: Cytotoxicity against human 786-0 cells after 48 hrs by sulforhodamine B assay; format: cell-based; settings: 786-0, 48 h
[11] = test system: NCI-H322M; experiment: Growth inhibition of human NCI-H322M cells after 48 hrs by sulforhodamine B assay; format: functional
[12] = test system: SN12C; experiment: Cytotoxicity against human SN12C cells after 48 hrs by sulforhodamine B assay; format: cell-based
[13] = test system: OVCAR-3; experiment: Cytotoxicity against human OVCAR3 cells after 48 hrs by sulforhodamine B assay; format: cell-based; settings: ovcar-3, 48 h
[14] = test system: NCI-H522; experiment: Cytotoxicity against human NCI-H522 cells after 48 hrs by sulforhodamine B assay; format: cell-based; settings: nci-h522, 48 h
[15] = test system: MDA-MB-468; experiment: Cytotoxicity against human MDA-MB-468 cells after 48 hrs by sulforhodamine B assay; format: cell-based; settings: mda-mb-468, 48 h
[16] = target: Cyclin-dependent kinase 19 (Homo sapiens) (UniProt Q9BWU1); experiment: Binding affinity to human CDK11 at 10 uM incubated for 1 hr by kinase binding assay relative to untreated control
Cyclin-dependent kinase 19 (Homo sapiens), sequence (Q9BWU1 whole entry): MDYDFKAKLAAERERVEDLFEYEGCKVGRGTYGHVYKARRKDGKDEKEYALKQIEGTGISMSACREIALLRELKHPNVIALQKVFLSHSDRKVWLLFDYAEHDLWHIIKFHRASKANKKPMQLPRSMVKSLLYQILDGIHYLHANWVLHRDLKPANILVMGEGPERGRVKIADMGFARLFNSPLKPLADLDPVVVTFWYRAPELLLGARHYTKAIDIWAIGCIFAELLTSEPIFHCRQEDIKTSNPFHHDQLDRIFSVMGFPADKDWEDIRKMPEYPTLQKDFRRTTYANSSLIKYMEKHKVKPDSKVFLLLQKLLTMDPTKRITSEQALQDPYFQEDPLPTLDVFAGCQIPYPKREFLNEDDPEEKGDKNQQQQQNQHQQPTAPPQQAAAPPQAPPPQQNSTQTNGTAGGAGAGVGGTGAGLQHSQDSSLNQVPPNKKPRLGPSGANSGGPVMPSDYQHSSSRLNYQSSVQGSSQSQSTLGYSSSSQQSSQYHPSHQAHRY

[17] = test system: BT-549; experiment: Cytotoxicity against human BT549 cells after 48 hrs by sulforhodamine B assay; format: cell-based; settings: bt-549, 48 h
[18] = test system: HOP-62; experiment: Cytotoxicity against human HOP62 cells after 48 hrs by sulforhodamine B assay; format: cell-based; settings: hop-62, 48 h
[19] = test system: HCT-116; experiment: Cytotoxicity against human HCT116 cells after 48 hrs by sulforhodamine B assay; format: cell-based; settings: hct-116, 48 h
[20] = test system: SF-539; experiment: Cytotoxicity against human SF539 cells after 48 hrs by sulforhodamine B assay; format: cell-based; settings: sf-539, 48 h
[21] = test system: MOLT-4; experiment: Cytotoxicity against human MOLT4 cells after 48 hrs by sulforhodamine B assay; format: cell-based; settings: molt-4, 48 h
[22] = test system: Receptor-type tyrosine-protein kinase FLT3 (Homo sapiens), P36888 [UNDEFINED MUTATION]; experiment: Binding affinity to human FLT3 ITD mutant at 10 uM incubated for 1 hr by kinase binding assay relative to untreated control
[23] = test system: TK-10; experiment: Cytotoxicity against human TK10 cells after 48 hrs by sulforhodamine B assay; format: cell-based; settings: tk-10, 48 h
[24] = test system: Tyrosine-protein kinase ABL1 (Homo sapiens), P00519 [F317I]; experiment: Binding affinity to human phosphorylated ABL1 F317I mutant at 10 uM incubated for 1 hr by kinase binding assay relative to untreated control
Tyrosine-protein kinase ABL1 (Homo sapiens), P00519 [F317I], sequence (P00519 whole entry F317I): as the sequence (P00519 whole entry) above, with F317I counted along it

[25] = test system: SF-268; experiment: Growth inhibition of human SF268 cells after 48 hrs by sulforhodamine B assay; format: functional; settings: SF-268, 48 h
[26] = test system: NCI-H226; experiment: Growth inhibition of human NCI-H226 cells after 48 hrs by sulforhodamine B assay; format: functional; settings: NCI-H226, 48 h
[27] = test system: KM12; experiment: Growth inhibition of human KM12 cells after 48 hrs by sulforhodamine B assay; format: functional; settings: KM12, 48 h
[28] = test system: CAKI-1; experiment: Cytotoxicity against human Caki1 cells after 48 hrs by sulforhodamine B assay; format: cell-based; settings: caki-1, 48 h
[29] = test system: HCT-15; experiment: Growth inhibition of human HCT15 cells after 48 hrs by sulforhodamine B assay; format: functional; settings: HCT-15, 48 h
[30] = test system: NCI-H460; experiment: Cytotoxicity against human NCI-H460 cells after 48 hrs by sulforhodamine B assay; format: cell-based; settings: nci-h460, 48 h
[31] = test system: A549; experiment: Growth inhibition of human A549 cells after 48 hrs by sulforhodamine B assay; format: functional; settings: A549, 48 h

Compound	Activity [1]	Activity [2]	TGI [3]	LC50 [4]	LC50 [5]	TGI [6]	Activity [7]	TGI [8]	LC50 [9]	LC50 [10]	TGI [11]	LC50 [12]	LC50 [13]	LC50 [14]	LC50 [15]	Activity [16]	LC50 [17]	LC50 [18]	LC50 [19]	LC50 [20]	also measured
CCc1cnc(N2CCN(C(=O)c3ccc(CNc4ncnc5ccccc45)cc3)CC2)nc1	> 50%	80%	30.7 µM	> 100 µM	> 100 µM	> 100 µM	100%	> 100 µM	> 100 µM	> 100 µM	> 100 µM	> 100 µM	> 100 µM	> 100 µM	> 100 µM	47%	> 100 µM	> 100 µM	> 100 µM	> 100 µM	LC50 [21]: > 100 µM; Activity [22]: > 50%; LC50 [23]: > 100 µM; Activity [24]: > 50%; TGI [25]: 100 µM; TGI [26]: > 100 µM; TGI [27]: 24.3 µM; LC50 [28]: > 100 µM; TGI [29]: > 100 µM; LC50 [30]: > 100 µM; TGI [31]: > 100 µM
c1ccc(Cc2cnc(N3CCN(c4ncnc5ccccc45)CC3)nc2)cc1	46%	92%	23.7 µM	> 100 µM	70.3 µM	30.7 µM	100%	69.8 µM	50.1 µM	> 100 µM	> 100 µM	54.8 µM	48.2 µM	> 100 µM	> 100 µM	0%	43 µM	> 100 µM	36.4 µM	56.1 µM	LC50 [21]: > 100 µM; Activity [22]: 49%; LC50 [23]: > 100 µM; Activity [24]: 30%; TGI [25]: 57.2 µM; TGI [26]: 48.4 µM; TGI [27]: 25.1 µM; LC50 [28]: > 100 µM; TGI [29]: 63.2 µM; LC50 [30]: 55 µM; TGI [31]: 35.7 µM
O=C(c1cccc(Nc2ncnc3ccccc23)c1)N1CCN(c2ncc(Cc3ccccc3)cn2)CC1	> 50%	87%	4.27 µM	5.01 µM	5.89 µM	6.46 µM	73%	5.75 µM	> 100 µM	> 100 µM	4.79 µM	> 100 µM	> 100 µM	5.13 µM	> 100 µM	> 50%	5.37 µM	7.41 µM	> 100 µM	> 100 µM	LC50 [21]: > 100 µM; Activity [22]: > 50%; LC50 [23]: 39.81 µM; Activity [24]: 20%; TGI [25]: > 100 µM; TGI [26]: 2.09 µM; TGI [27]: 2.4 µM; LC50 [28]: 4.47 µM; TGI [29]: 3.55 µM; LC50 [30]: > 100 µM; TGI [31]: 3.09 µM
